According to article PMC12175907 (Science Advances, 2025):

Experiments:
DIO GIPR KO mice = assay: chronic treatment, food intake and body weight, DIO GIPR KO mice; format: in vivo, mouse; conditions: inferred from GIPR KO DIO mice
Text: DIO adult male C57BL/6 mice (Taconic) C57BL/6 (n = 23, weighing ~43 g at arrival), GLP-1R KO (germline knockout line: 11549, n = 24, weighing ~38 g at arrival), and GIPR KO mice (germline knockout line: 2886, n = 24, weighing ~35 g at arrival) were used. Upon arrival, mice were individually housed and continued to be fed ad libitum on high-fat/high-sugar diet (60% fat diet, 12492, Research Diets).
(§1) GIPFA-085 (GIP-085), tirzepatide, and GLP-140 were designed and produced by Eli Lilly and Company. GIP-085, GLP-140, and semaglutide (Cayman Chemical) were dissolved in 40 mM tris-HCl buffer (pH 8) and 0.02% Tween 80. For the study in mice, all drugs were injected subcutaneously at a volume of 5 ml/kg of body weight. In rats, all drugs were injected intraperitoneally, at a volume of 1 ml/kg of body weight, except when noted. In shrews, all drugs were injected intraperitoneally at a volume of 10 ml/kg of body weight.
C57BL/6 wild-type (n = 23), GLP-1R KO (n = 24), and GIPR KO mice (n = 24) received daily subcutaneous administration of GIP-085 (300 nmol/kg), semaglutide (3 nmol/kg), GIP-085/semaglutide combo, or vehicle for 16 days. Food intake and body weight were manually measured daily. […] Body composition of mice was determined using quantitative nuclear magnetic resonance analysis (ECHO MRI, 3-1 Composition Analyzer; Echo Medical Systems). […]

DIO wild-type mice = assay: body composition (ECHO MRI), DIO wild-type mice; format: in vivo, C57BL/6 mouse; conditions: 16 days daily sc, GIP-085 300 nmol/kg, semaglutide 3 nmol/kg, mean ± SEM, n=5-6 per group
Protocol: (§2) C57BL/6 wild-type (n = 23), GLP-1R KO (n = 24), and GIPR KO mice (n = 24) received daily subcutaneous administration of GIP-085 (300 nmol/kg), semaglutide (3 nmol/kg), GIP-085/semaglutide combo, or vehicle for 16 days. Food intake and body weight were manually measured daily. The average body weight at the start of the experiment was 43.7 ± 0.4 g for the wild-type group, 39.0 ± 0.6 g for the GLP-1R KO group, and 36.5 ± 0.4 g for the GIPR KO group. Body composition of mice was determined using quantitative nuclear magnetic resonance analysis (ECHO MRI, 3-1 Composition Analyzer; Echo Medical Systems). At the end of the experiment, the animals were euthanized by CO2.

GLP-1R KO DIO mice = assay: body composition (ECHO MRI), GLP-1R KO DIO mice; format: in vivo, mouse; conditions: n=6 per group
Protocol: as §2

rats = assay: food and kaolin consumption and body weight in rats (semaglutide, tirzepatide); format: in vivo, Sprague-Dawley rat
Text: Adult male Sprague-Dawley rats (Charles River) weighing ~250 to 270 g (n = 45) at arrival were housed under a 12-hour/12-hour light/dark cycle in a temperature-controlled and humidity-controlled vivarium. Rats were individually housed in hanging wire-bottom cage with ad libitum access to chow diet (Purina Lab Diet 5001) or, when noted, to high-fat/high-sugar diet (60% fat diet, 12492, Research Diets) and tap water and had ad libitum access to kaolin pellets (Research Diets, K50001). Rats were exposed to kaolin for at least 5 days prior to measuring kaolin consumption in pica testing. Kaolin intake and food consumption were measured simultaneously as the presence of kaolin in the cage, and its subsequent ingestion, has usually negligible effects on the hypophagic and body weight–lowering effects of the treatments.
as §1
In two separate cohorts of rats (n = 10 per group, body weight ~ 460 ± 9 g), food consumption, kaolin intake, and body weight were measured after an intraperitoneal administration of vehicle, semaglutide (10 and 100 nmol/kg), or tirzepatide (10 and 100 nmol/kg), respectively. Food and kaolin intake were measured at 3, 6, 24, and 48 hours postinjection, and body weight was measured at 0, 24, and 48 hours. For each drug, a within-subject paradigm was used, with each round of injections separated by 7 days.

shrews [1] = assay: IPGTT, semaglutide, shrews; format: in vivo, Suncus murinus; conditions: 10, 100 and 500 nmol/kg ip, 30 min before glucose 2 g/kg ip, 20 min post-glucose, n = 8 per group
Text: (§3) Adult male shrews (S. murinus) weighing ~50 to 80 g (n = 84 total) were bred and maintained in the De Jonghe Lab (University of Pennsylvania). These animals were offspring from a colony previously maintained at the University of Pittsburgh Cancer Institute (C. Horn); a Taiwanese strain was derived from stock originally supplied by the Chinese University of Hong Kong. Shrews were singly housed in plastic cages (37.3 cm by 23.4 cm by 14 cm, Innovive) under a 12-hour/12-hour light/dark cycle in a temperature-controlled and humidity-controlled environment. Animal were fed ad libitum with a mixture of feline (75%, Laboratory Feline Diet 5003, Lab Diet) and mink food (25%, High Density Ferret Diet 5LI4, Lab Diet) and had ad libitum access to tap water except where noted.
The protocol for performing an IPGTT in shrews (n = 16) was previously described ([27]). Briefly, each shrews received intraperitoneal injection of semaglutide (10, 100, and 500 nmol/kg) or vehicle (10 ml/kg body weight) followed 30 min later by a glucose bolus injection [2 g/kg, intraperitoneally (ip)]. Blood glucose readings were taken at −30, 0, 20, 40, 60, and 120 min post-glucose administration. This study was conducted using a partial within-subject design, with each animal receiving two treatments separated by a 7-day interval.

shrews [2] = assay: food intake and body weight, semaglutide, GIP-085 and combo, shrews; format: in vivo, Suncus murinus; conditions: semaglutide alone, 500 nmol/kg ip; n = 8
Text: as §3
First, we compared the effects of semaglutide (500 nmol/kg), GIP-085 (300 nmol/kg), GIP-085/semaglutide, or vehicle on food intake and body weight in the same animals (n = 8, ~54 ± 2 g) using in a within-subject, counterbalanced design. This experiment was conducted as described above. Each treatment was 7 days apart.

[3] = 100 nmol/kg ip, n = 10 to 20 per group
[4] = 10 and 100 nmol/kg ip, n = 10 per group, vs vehicle

Substance: semaglutide
- cross-reactivity at the GIPR (DIO GIPR KO mice): lack of cross-reactivity
- total fat mass at the end of the experiment (DIO wild-type mice; Veh: 17.9±0.5g): 12.2 ± 0.8 g
- total lean mass at the end of the experiment (DIO wild-type mice; Veh: 24.8±0.6g): 24.6 ± 0.7 g
- total fat mass at the end of the experiment (GLP-1R KO DIO mice; 16 days daily sc, GIP-085 300 nmol/kg, semaglutide 3 nmol/kg, mean ± SEM, Veh: 17.3±0.8g): 15.5 ± 0.9 g
- total lean mass at the end of the experiment (GLP-1R KO DIO mice; 16 days daily sc, GIP-085 300 nmol/kg, semaglutide 3 nmol/kg, mean ± SEM, Veh: 24.1±0.6g): 23.9 ± 0.7 g
- body composition changes (GLP-1R KO DIO mice; semaglutide 3 nmol/kg and dual semaglutide/GIP-085, 16 days): No changes
- kaolin intake (rats; 100 nmol/kg ip, n = 10 per group, vs vehicle): causes significant malaise (i.e., kaolin intake)
- hypophagic responses, semaglutide vs tirzepatide (rats; [3]): comparable hypophagic responses
- kaolin consumption, semaglutide vs tirzepatide (rats; [3]): significantly higher than that caused by tirzepatide
- kaolin consumption, semaglutide vs tirzepatide (rats; 100 nmol/kg ip, n = 10 to 20 per group, listed as Semaglutide): induces higher kaolin consumption than tirzepatide treatment
- body weight (rats; [4]): causes body weight loss in a dose-dependent manner
- food intake (rats; [4]): dose-dependently suppresses food intake
- blood glucose levels following glucose (shrews [1]): significantly reduced glucose levels in a dose-dependent manner
- blood glucose levels following glucose (shrews [1]; listed as Semaglutide): dose-dependently suppresses blood glucose levels
- body weight (shrews [2]): body weight loss
- food intake (shrews [2]): induced anorexia
